# Read-outs that look alike come from different tables or passages of the source.
# Legend:
# clinical = settings: male, human, in vivo, po, 15 mg, T max,ss, 7 days, Arm E, median [minimum–maximum]
# CYP2C9 = settings: CYP isoform 2C9; cited from earlier work
# [1] = cited from earlier work; for intra‐subject variability for the PK parameter (C max): NSAIDs, ref previously reported
# [2] = cited from earlier work
# [3] = for AUCτ,ss / C max,ss / MR, metabolic ratio of fexuprazan (AUCτ,M14/AUCτ,fexuprazan) / V ss/F / t 1/2 / T max,ss: 5 days; for AUCτ,ss / C max,ss / MR, metabolic ratio of fexuprazan (AUCτ,M14/AUCτ,fexuprazan) / V ss/F / t 1/2: mean ± SD; for T max,ss: median [minimum–maximum]
# transporters = settings: at the effective dose of 40 mg; cited from earlier work
# [4] = Pharmacokinetic interaction study, fexuprazan and celecoxib; format: in vivo, healthy Korean male subjects; settings: 5 days; for T max,ss / Tmax: median [minimum–maximum]; for Tmax: T max,ss; for Vd/F: V ss/F
# [5] = for T max: median [minimum–maximum]
# [6] = Safety and tolerability, adverse events, Cohort 3; format: in vivo, healthy Korean male subjects
# [7] = Safety and tolerability, adverse events, Cohort 2; format: in vivo, healthy Korean male subjects
# [8] = Safety and tolerability, adverse events, Cohort 1; format: in vivo, healthy Korean male subjects
# [9] = system: uptake or efflux transporters; settings: cited from earlier work
# CYP2D6 = settings: CYP isoform 2D6; cited from earlier work
# [10] = combination: fexuprazan 40 mg BID + naproxen 500 mg BID, Arm D
# [11] = monotherapy: fexuprazan 40 mg BID, Arm D (Cohort 2)
# [12] = combination: fexuprazan 40 mg BID + celecoxib 200 mg BID, Arm B, mean ± SD
# [13] = monotherapy: fexuprazan 40 mg BID, Arm B (Cohort 1), mean ± SD
# [14] = combination: fexuprazan 40 mg BID + meloxicam 15 mg QD, 7 days, Arm F, mean ± SD
# [15] = monotherapy: fexuprazan 40 mg BID, 5 days, Arm F (Cohort 3), mean ± SD
compound,measurement,setting,value
Cc1cnc(NC(=O)C2=C(O)c3ccccc3S(=O)(=O)N2C)s1 [Meloxicam],Tmax,clinical; combination: meloxicam 15 mg QD + fexuprazan 40 mg BID,4.5 h
same,Tmax,clinical; monotherapy: meloxicam 15 mg QD,5 h
same,inhibitory effect of NSAIDs on the CYP isoform,CYP2C9,relatively weak inhibitor
same,intra‐subject variability for the PK parameter (C max),[1],9.8%
CNCc1cn(S(=O)(=O)c2cccc(F)c2)c(-c2ccc(F)cc2F)c1OC [Fexuprazan],multiple dose with established safety and tolerability,[2]; multiple doses for 7 days,up to 160 mg
same,single dose with established safety and tolerability,[2]; single dose,up to 320 mg
same,"AUCτ,ss",[3]; [10],728.7 ± 463.2 ng·h/mL
same,"C max,ss",[3]; [10],89.2 ± 52.5 ng/mL
same,"MR, metabolic ratio of fexuprazan (AUCτ,M14/AUCτ,fexuprazan)",[3]; [10],2.03 ± 1.25
same,V ss/F,[3]; [10],808.9 ± 503.9 L
same,t 1/2,[3]; [10],7.8 ± 1.1 h
same,"T max,ss",[3]; [10],3.0 [1.5–4.0] h
same,increase in systemic exposure,[3]; fexuprazan co-administered with naproxen vs fexuprazan alone,approximately 20%
same,"AUCτ,ss",[3]; [11],591.7 ± 271.7 ng·h/mL
same,"C max,ss",[3]; [11],72.5 ± 37.0 ng/mL
same,"MR, metabolic ratio of fexuprazan (AUCτ,M14/AUCτ,fexuprazan)",[3]; [11],2.65 ± 1.22
same,V ss/F,[3]; [11],1028.6 ± 506.2 L
same,t 1/2,[3]; [11],8.6 ± 0.9 h
same,"T max,ss",[3]; [11],2.5 [1.0–6.0] h
same,potential for inhibitory effects on transporters,transporters,low potential
same,"AUCτ,ss",[4]; [12],570.2 ± 255.7 ng·h/mL
same,"C max,ss",[4]; [12],71.3 ± 32.4 ng/mL
same,"MR, metabolic ratio of fexuprazan (AUCτ,M14/AUCτ,fexuprazan)",[4]; [12],3.82 ± 2.72
same,V ss/F,[4]; [12],1136.7 ± 730.7 L
same,t 1/2,[4]; [12],8.5 ± 0.8 h
same,"T max,ss","[4]; combination: fexuprazan 40 mg BID + celecoxib 200 mg BID, Arm B",2.5 [1.0–6.0] h
same,"AUCτ,ss",[4]; [13],555.3 ± 239.6 ng·h/mL
same,"C max,ss",[4]; [13],65.6 ± 30.1 ng/mL
same,"MR, metabolic ratio of fexuprazan (AUCτ,M14/AUCτ,fexuprazan)",[4]; [13],3.56 ± 2.50
same,V ss/F,[4]; [13],1203.2 ± 788.6 L
same,t 1/2,[4]; [13],8.7 ± 1.2 h
same,"T max,ss","[4]; monotherapy: fexuprazan 40 mg BID, Arm B (Cohort 1)",3.0 [1.0–6.0] h
same,"AUCτ,ss",[5]; [14],674.7 ± 379.2 ng·h/mL
same,"C max,ss",[5]; [14],83.2 ± 46.2 ng/mL
same,V ss/F,[5]; [14],1427.7 ± 1984.4 L
same,t 1/2,[5]; [14],8.6 ± 2.1 h
same,T max,"[5]; combination: fexuprazan 40 mg BID + meloxicam 15 mg QD, 7 days, Arm F",2.5 [1.5–4.0] h
same,"AUCτ,ss",[5]; [15],728.3 ± 403.5 ng·h/mL
same,"C max,ss",[5]; [15],82.8 ± 45.5 ng/mL
same,"MR, metabolic ratio of fexuprazan (AUCτ,M14/AUCτ,fexuprazan)",[5]; [15],2.50 ± 1.64
same,V ss/F,[5]; [15],1161.1 ± 1231.1 L
same,t 1/2,[5]; [15],9.6 ± 2.2 h
same,T max,"[5]; monotherapy: fexuprazan 40 mg BID, 5 days, Arm F (Cohort 3)",2.5 [1.5–8.0] h
same,Summary of AEs: number of events,[6],eight
same,percentage of subjects with AEs,[6],23.5%
same,elimination half‐life,[1]; fexuprazan,7.5 to 9.5 h
same,Summary of AEs: number of events,[7],six
same,percentage of subjects with AEs,[7],33.3%
same,percentage of subjects with AEs,[8],33.3%
same,substrate for uptake or efflux transporters,[9],not a substrate
Cc1ccc(-c2cc(C(F)(F)F)nn2-c2ccc(S(N)(=O)=O)cc2)cc1 [Celecoxib],inhibitory effect of NSAIDs on the CYP isoform,CYP2D6,moderate inhibitory effects
same,AUC,"[4]; male, human, plasma, po, 200 mg, AUCτ,ss, combination: celecoxib 200 mg BID + fexuprazan 40 mg BID, Arm A, mean ± SD",8110 ± 2550 ng·h/mL
same,Cmax,"[4]; male, human, plasma, po, 200 mg, C max,ss, monotherapy: celecoxib 200 mg BID, Arm A, mean ± SD",1080 ± 315 ng/mL
same,Tmax,"[4]; male, human, plasma, po, 200 mg, combination: celecoxib 200 mg BID + fexuprazan 40 mg BID, Arm A",3 h
same,Tmax,"[4]; male, human, plasma, po, 200 mg, monotherapy: celecoxib 200 mg BID, Arm A",2.5 h
same,Vd/F,"[4]; male, human, plasma, po, 200 mg, combination: celecoxib 200 mg BID + fexuprazan 40 mg BID, Arm A, mean ± SD",358 ± 126 L
same,Vd/F,"[4]; male, human, plasma, po, 200 mg, monotherapy: celecoxib 200 mg BID, Arm A, mean ± SD",416 ± 235 L
same,half-life,"[4]; male, human, plasma, po, 200 mg, t 1/2, combination: celecoxib 200 mg BID + fexuprazan 40 mg BID, Arm A, mean ± SD",9.5 ± 3.3 h
same,half-life,"[4]; male, human, plasma, po, 200 mg, t 1/2, monotherapy: celecoxib 200 mg BID, Arm A, mean ± SD",9.4 ± 5 h
same,intra‐subject variability for the PK parameter (C max),[1],31.8%
same,elimination half‐life,[1]; celecoxib,12.4 h
COc1ccc2cc([C@H](C)C(=O)O)ccc2c1 [Naproxen],intra‐subject variability for the PK parameter (C max),[1],8.4%

# From paper PMC11067709 (Clinical and Translational Science, 2024)
